Laboratory results reported in US20250101052A1, “COMPOUND FOR EGFR KINASE INHIBITOR, COMPOSITION, AND USE THEREOF” (INNOVATION INSTITUTE FOR ARTIFICIAL INTELLIGENCE IN …, priority 2021, published 2025).

What was measured:
A431 cells = test: A431 cell proliferation inhibition (SRB); assay type: cell-based; conditions: Homo sapiens, A-431, wild-type EGFR, 72 hours
Procedure: A431 cell proliferation inhibition: The compounds of the present invention have good selectivity to wild-type EGFR
(§1) a) The medium was preheated in a 37° C. water bath.
(§2) b) The cryopreservation tube was taken from the liquid nitrogen tank, quickly placed in a 37° C. water bath, and melted completely within 1 minute.
(§3) c) The cell suspension was transferred to a 15 mL centrifuge tube containing a 10 mL medium and centrifuged at 1000 rpm for 4 minutes.
(§4) d) The supernatant was discarded, the cells were resuspended in a 1 mL medium and transferred to a […] culture dish containing a 10 mL medium, 20% serum and 50 ng/mL EGF were administered to the first-generation medium, and culture was conducted in a 37° C. and 5% CO2 incubator.
(§5) b) The cells in the culture dish were blown evenly with a 5 mL pipette, and 500 μL of the cells were pipetted out to be inoculated into a new […] culture dish and cultured in a 37° C. and 5% CO2 incubator.
(§6) a) The compound to be tested (10 mM stock solution) was diluted with 100% DMSO to 1 mM, and diluted with a culture solution in a 24-well plate to prepare of a working solution of 2 μM concentration.
(§7) b) The 2 μM working solution was diluted with a triple dilution method to obtain working solutions with approximate concentrations of 2 μM, 600 nM, 200 nM, 60 nM, and 20 nM.
(§8) a) The cells at the logarithmic growth phase were centrifuged at 1000 rpm for 4 minutes, resuspended with a medium (containing 10% serum and 50 ng/mL EGF), and counted.
(§9) b) The cells were inoculated into a 96-well plate with a cell density of 4000 cells/well, and placed in a 37° C. and 5% CO2 incubator for culture for 12 hours.
(§10) a) The prepared compound was added to a 96-well plate, with 100 μL per well. The final concentrations were 1 μM, 300 nM, 100 nM, 30 nM, 10 nM, and 0 nM, and the final concentration of DMSO was 0.2%. A medium served as a blank control.
(§11) b) The cells were placed in 37° C. and 5% CO2 incubator for culture for 72 hours.
(§12) (5) Cell Viability Testing
a) The cell supernatant was discarded, rinsed once with 1×PBS, and fixed with 10% trichloroacetic acid for 1 hour. The trichloroacetic acid was discarded, excess trichloroacetic acid was washed off with tap water, and the 96-well plate was dried in a 60° C. oven.
b) 70 μL of an SRB stain was added to each well of the dry 96-well plate for staining at a room temperature for 30 minutes. Excess SRB stain was washed off with 1% glacial acetic acid, and the 96-well plate was dried in a 60° C. oven.
c) SRB was dissolved with 100 μL of 10 mM Tris-base solution. The absorbance was detected at 540 nm ultraviolet absorption using the microplate reader. The data was analyzed.
(§13) The data was analyzed using GraphPad Prism 8.0 software to obtain a fitted curve of activity of the compounds. The IC50 of the compounds was fitted from nonlinear regression equation.

[1] = tested on: BaF3-EGFR^L858R/T790M/C797S cells; test: BaF3 cell proliferation inhibition experiment (CCK-8); assay type: cell-based; conditions: Ba/F3 EGFR-L858R, 72 hours
Text: BaF3 cell proliferation inhibition experiment: The compounds of the present invention have excellent inhibitory activity against the proliferation of BaF3-EGFR^L858R/T790M/C797S cells
A. Cell line: BaF3 cells with stable overexpression of wild-type genes are named BaF3-EGFR^WT, and BaF3 cells with stable overexpression of EGFR^L858R/T790M/C797S EGFR^del19/T790M/C797S EGFR^L858R/C797S and EGFR^del19/C797S mutant genes are named BaF3-EGFR^L858R/T790M/C797S BaF3-EGFR^del19/T790M/C797S BaF3-EGFR^L858R/C797S and BaF3-EGFR^del19/C797S cells, respectively. Mediums:
as §1, §2, §3, §4, §5, §6, §7, §8, §9, §10, §11, §12
a) The 96-well cell culture plate was taken out, and 20 μL of a CCK-8 reagent (Cell Counting Kit-8, Topscience, Catalog No. C0005) was added in the dark.
b) Mixing well was conducted on a horizontal shaking table at a room temperature at 100 rpm for 5 minutes.
c) The culture plate was placed in a 37° C. constant-temperature incubator for incubation.
d) Starting from the addition of the CCK-8, the absorbance at 450 nm was read using the TECAN microplate reader at 1 hour, 2 hours, and 3 hours, respectively.
as §13

[2] = biological target: EGFR^L858R/T790M/C797S kinase (Homo sapiens (Human), UniProt P00533, C797S/L858R/T790M); test: EGFR^L858R/T790M/C797S kinase inhibitory activity experiment; assay type: biochemical; conditions: in vitro
EGFR^L858R/T790M/C797S kinase, sequence (P00533 25-1210 T790M/C797S/L858R): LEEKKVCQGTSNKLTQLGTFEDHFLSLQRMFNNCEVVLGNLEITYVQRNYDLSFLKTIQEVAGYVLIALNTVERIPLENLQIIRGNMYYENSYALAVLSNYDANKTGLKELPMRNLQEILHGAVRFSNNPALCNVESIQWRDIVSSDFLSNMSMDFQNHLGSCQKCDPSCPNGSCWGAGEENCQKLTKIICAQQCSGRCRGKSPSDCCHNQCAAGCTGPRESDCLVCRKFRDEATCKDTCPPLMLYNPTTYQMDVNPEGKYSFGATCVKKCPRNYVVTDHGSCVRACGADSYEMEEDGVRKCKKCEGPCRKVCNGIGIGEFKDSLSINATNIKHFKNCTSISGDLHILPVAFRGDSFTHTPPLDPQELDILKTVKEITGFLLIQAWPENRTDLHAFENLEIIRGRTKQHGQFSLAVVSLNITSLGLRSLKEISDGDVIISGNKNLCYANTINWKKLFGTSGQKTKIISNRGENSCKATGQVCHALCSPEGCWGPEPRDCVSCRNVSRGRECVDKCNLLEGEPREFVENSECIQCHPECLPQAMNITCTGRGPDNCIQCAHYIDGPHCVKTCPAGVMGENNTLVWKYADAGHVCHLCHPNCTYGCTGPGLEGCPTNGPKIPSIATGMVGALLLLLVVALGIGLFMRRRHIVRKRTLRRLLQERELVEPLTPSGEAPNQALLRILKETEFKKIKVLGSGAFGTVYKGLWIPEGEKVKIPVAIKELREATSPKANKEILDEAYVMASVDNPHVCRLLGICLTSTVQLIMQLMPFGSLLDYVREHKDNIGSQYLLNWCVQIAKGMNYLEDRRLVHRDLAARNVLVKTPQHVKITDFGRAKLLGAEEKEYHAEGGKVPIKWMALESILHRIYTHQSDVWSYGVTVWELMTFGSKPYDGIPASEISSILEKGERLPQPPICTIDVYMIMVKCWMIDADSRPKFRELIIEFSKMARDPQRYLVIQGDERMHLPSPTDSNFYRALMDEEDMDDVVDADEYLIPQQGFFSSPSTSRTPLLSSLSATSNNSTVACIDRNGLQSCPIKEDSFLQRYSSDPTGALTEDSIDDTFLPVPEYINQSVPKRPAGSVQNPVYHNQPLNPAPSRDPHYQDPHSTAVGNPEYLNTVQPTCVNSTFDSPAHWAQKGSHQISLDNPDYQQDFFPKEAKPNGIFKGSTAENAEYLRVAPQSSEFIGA
Procedure: EGFRL^858R/T790M/C797S kinase inhibitory activity experiment: The compounds of the present invention have excellent in-vitro inhibitory activity against EGFR^L858R/T790M/C797S kinase
• Centrifuge (manufacturer: Eppendorf, model: 5430) • Microplate reader (manufacturer: Perkin Elmer, model: Caliper EZ ReaderII) • Echo 550 (manufacturer: Labcyte, model: Echo 550) • Experimental Method • Compound preparation: • A 10 mM storage solution was prepared.
(1) 1×Kinase buffer was prepared.
(2) Preparation of concentration gradient of compound: The tested compound has a test concentration starting from 1 μM, diluted 10 times, with 10 concentrations, and subjected to single-well or multi-well detection. The compound was diluted to a 100% DMSO solution with a final concentration of 100 times in a 384 source plate. […] of the compound at a final concentration of 100 times was transferred to the target plate 384-well-plate using the pipette Echo 550.
(3) A kinase solution with a final concentration of 2.5 times was prepared using 1× Kinase buffer.
(4) 10 μL of the kinase solution with the final concentration of 2.5 times was added to a compound well and a positive control well, respectively; 10 μL of 1×Kinase buffer was added to a negative control well.
(5) Centrifugation was conducted at 1000 rpm for 30 seconds, and the reaction plate was shaken and mixed well, and incubated at a room temperature for 10 minutes.
(6) A mixed solution of ATP with a final concentration of 5/3 times and Kinase substrate 22 was prepared using 1×Kinase buffer.
(7) A mixed solution of 15 μL of ATP with a final concentration of 5/3 times and a substrate was added for initial reaction.
(8) The 384-well-plate was centrifuged at 1000 rpm for 30 seconds, shaken and mixed well, and incubated at a room temperature for 60 minutes.
(9) 30 μL of a termination detection solution was added to stop the kinase reaction. Centrifugation was conducted at 1000 rpm for 30 seconds. Shaking and mixing well were conducted.
(10) The conversion rate was read using Caliper EZ Reader.
where Conversion %_sample is the conversion rate reading of the sample; Conversion %_min: the average value of negative control wells, representing the conversion rate reading of wells without enzyme activity; Conversion %_max: the average value of positive control wells, representing the conversion rate reading of wells without compound inhibition; % Inhibition represents the inhibition rate.
Fitting of Dose-Response Curve
Using the log value of concentration as the X-axis and the percentage inhibition rate as the Y-axis, the dose-response curve was fitted using the log(inhibitor) vs. response —Variable slope of the analysis software GraphPad Prism 5 to obtain the IC50 value of each compound on enzyme activity.

| IC50 (A431 cells) | IC50 [1] | IC50 [2] | SMILES |
| --- | --- | --- | --- |
| 280 nM | 251 nM | 2.3 nM | CCc1cc(Nc2ncc(Cl)c(Nc3ccccc3P(C)(C)=O)n2)c(OC)cc1N1CC2(CCN(C)CC2)C1 [Comparative Compound B, (2-((5-Chloro-2-((5-ethyl-2-methoxy-4-(7-methyl-2,7-diazaspiro[3.5]nonan-2-yl)phenyl)amino)pyrimidin-4-yl)amino)phenyl)dimethylphosphine oxide, reference compound] |
| > 500 nM | 42.3 nM | 11 nM | COc1cc(N2CC3(CCN(C)CC3)C2)c(C)cc1Nc1ncc(Cl)c(Nc2cc(C)c(C)cc2P(C)(C)=O)n1 [Compound 5, (2-((5-Chloro-2-((2-methoxy-5-methyl-4-(7-methyl-2,7-diazaspiro[3.5]nonan-2-yl)phenyl)amino)pyrimidin-4-yl)amino)-4,5-dimethylphenyl)dimethylphosphine oxide] |
| > 500 nM | 49.9 nM | 0.98 nM | CCc1cc(Nc2ncc(Cl)c(Nc3cc(Cl)c(Cl)cc3P(C)(C)=O)n2)c(OC)cc1N1CCC2(CC1)CC(N(C)C)C2 [Compound 7, (4,5-Dichloro-2-((5-chloro-2-((4-(2-(dimethylamino)-7-azaspiro[3. 5]nonan-7-yl)-5-ethyl-2-methoxyphenyl)amino)pyrimidin-4-yl)amino)phenyl)dimethylphosphine oxide] |
| > 1000 nM | 261 nM | 29 nM | CCc1cc(Nc2ncc(Cl)c(Nc3cc(C(F)(F)F)ccc3P(C)(C)=O)n2)c(OC)cc1N1CCC2(CC1)CC(N(C)C)C2 [Compound 8, (2-((5-Chloro-2-((4-(2-(dimethylamino)-7-azaspiro[3.5]nonan-7-yl)-5-ethyl-2-methoxypheny 1)amino)pyrimidin-4-yl)amino)-4-(trifluoromethyl)phenyl)dimethylphosphine oxide] |
| > 500 nM | 38.1 nM | 0.89 nM | COc1cc(N2CCC3(CC2)CC(N(C)C)C3)c(Cl)cc1Nc1ncc(Cl)c(Nc2cc(C)c(C)cc2P(C)(C)=O)n1 [Compound 13, (2-((5-Chloro-2-((5-chloro-4-(2-(dimethylamino)-7-azaspiro[3.5]nonan-7-yl)-2-methoxyphenyl)amino)pyrimidin-4-yl)amino)-4,5-dimethylphenyl)dimethylphosphine oxide] |
| > 500 nM | 35.7 nM | 12 nM | COc1cc(N2CCC3(CC2)CC(N(C)C)C3)c(F)cc1Nc1ncc(Cl)c(Nc2cc(C)c(C)cc2P(C)(C)=O)n1 [Compound 16, (2-((5-chloro-2-((4-(2-(dimethylamino)-7-azaspiro[3.5]nonan-7-yl)-5-fluoro-2-methoxypheny 1)amino)pyrimidin-4-yl)amino)-4,5-dimethylphenyl)dimethylphosphine oxide] |
| > 500 nM | 45.4 nM | 0.77 nM | CCc1cc(Nc2ncc(Cl)c(Nc3cc(C)c(C)cc3P(C)(C)=O)n2)c(OC)cc1N1CCC2(CC1)CC(N(C)C)C2 [Compound 17, (2-((5-Chloro-2-((4-(2-(dimethylamino)-7-azaspiro[3.5]non-7-yl)-5-ethyl-2-methoxyphenyl)amino)pyrimidin-4-yl)amino)-4,5-dimethylphenyl)dimethylphosphine oxide] |
| > 500 nM | 47.8 nM | 0.86 nM | CCc1cc(Nc2ncc(Cl)c(Nc3cccc(Cl)c3P(C)(C)=O)n2)c(OC)cc1N1CCC2(CC1)CC(N(C)C)C2 [Compound 19, (2-chloro-6-((5-chloro-2-((4-(2-(dimethylamino)-7-azaspiro[3.5]nonan-7-yl)-5-ethyl-2-methoxyphenyl)amino)pyrimidin-4-yl)amino)phenyl)dimethylphosphine oxide] |
| – | – | 25.2 nM | COc1cc(N2CC3(CCC(CC#N)CC3)C2)c(Cl)cc1Nc1ncc(Cl)c(Nc2cc(C)c(C)cc2P(C)(C)=O)n1 [Compound 43, 2-(2-(2-chloro-4-((5-chloro-4-((2-(dimethylphosphoryl)-4,5-dimethylphenyl)amino)pyrimidin-2-yl)amino)-5-methoxyphenyl)-2-azaspiro[3.5]nonan-7-yl)acetonitrile] |
| – | – | 0.48 nM | CCc1cc(Nc2ncc(Cl)c(Nc3cc(C)c(C)cc3P(C)(C)=O)n2)c(OC)cc1N1CC2(CCN(C)CC2)C1 [Compound 44] |
| – | – | 0.63 nM | CCc1cc(Nc2ncc(Cl)c(Nc3cccc(Cl)c3P(C)(C)=O)n2)c(OC)cc1N1CC2(CCN(C)CC2)C1 [Compound 46] |
| – | – | 0.78 nM | CCc1cc(Nc2ncc(Cl)c(Nc3cccc(Cl)c3P(C)(C)=O)n2)c(OC)cc1N1CC2(CCN(CC)CC2)C1 [Compound 47] |
| – | – | 8.23 nM | CCc1cc(Nc2ncc(Cl)c(Nc3ccc(C)c(C)c3P(C)(C)=O)n2)c(OC)cc1N1CCC2(CC1)CC(N1CC(C#N)C1)C2 [Compound 49, 1-(7-(4-((5-chloro-4-((2-(dimethylphosphoryl)-3,4-dimethylphenyl)amino)pyrimidin-2-yl)amino)-2-ethyl-5-methoxyphenyl)-7-azaspiro[3.5]nonan-2-yl)azetidine-3-carbonitrile] |

| SMILES | IC50 (A431 cells) | IC50 [1] | IC50 [2] |
| --- | --- | --- | --- |
| CCc1cc(Nc2ncc(Cl)c(Nc3cc(C)c(C)cc3P(C)(C)=O)n2)c(OC)cc1N1CC2(CCN(CC(F)F)CC2)C1 [Compound 45] | – | – | 0.74 nM |
| CCc1cc(Nc2ncc(Cl)c(Nc3ccc(C)c(C)c3P(C)(C)=O)n2)c(OC)cc1N1CCC(N2CC3CC(C2)N3C)CC1 [Compound 53, (6-((5-Chloro-2-((5-ethyl-2-methoxy-4-(4-(6-methyl-3,6-diazadicyclo[3.1.1]heptane-3-yl)piperidin-1-yl)phenyl)amino)pyrimidin-4-yl)amino)-2,3-dimethylphenyl)dimethylphosphine oxide] | – | – | 0.269 nM |
